Structures can show the parent of a compound that is named as a salt.
Legend:
NaV1.5 = NaV1.5 (Homo sapiens (Human), UniProt Q14524); test: Sodium Influx Assay (Flux), NaV1.5; conditions: read-out: Flux NaV1.5 IC50; Trex HEK293 cells, ANG2 dye; arithmetic mean
NaV1.6 = NaV1.6 (Homo sapiens (Human), UniProt Q9UQD0); test: Sodium Influx Assay (Flux), NaV1.6; conditions: read-out: Flux NaV1.6 IC50; Trex HEK293 cells, ANG2 dye; arithmetic mean
NaV1.1 = NaV1.1 (Homo sapiens (Human), UniProt P35498); test: Sodium Influx Assay (Flux), NaV1.1; assay type: cell-based; conditions: Trex HEK293 cells, ANG2 dye; arithmetic mean

NaV1.5, sequence (Q14524 other isoform, or with tags, fused parts or gaps): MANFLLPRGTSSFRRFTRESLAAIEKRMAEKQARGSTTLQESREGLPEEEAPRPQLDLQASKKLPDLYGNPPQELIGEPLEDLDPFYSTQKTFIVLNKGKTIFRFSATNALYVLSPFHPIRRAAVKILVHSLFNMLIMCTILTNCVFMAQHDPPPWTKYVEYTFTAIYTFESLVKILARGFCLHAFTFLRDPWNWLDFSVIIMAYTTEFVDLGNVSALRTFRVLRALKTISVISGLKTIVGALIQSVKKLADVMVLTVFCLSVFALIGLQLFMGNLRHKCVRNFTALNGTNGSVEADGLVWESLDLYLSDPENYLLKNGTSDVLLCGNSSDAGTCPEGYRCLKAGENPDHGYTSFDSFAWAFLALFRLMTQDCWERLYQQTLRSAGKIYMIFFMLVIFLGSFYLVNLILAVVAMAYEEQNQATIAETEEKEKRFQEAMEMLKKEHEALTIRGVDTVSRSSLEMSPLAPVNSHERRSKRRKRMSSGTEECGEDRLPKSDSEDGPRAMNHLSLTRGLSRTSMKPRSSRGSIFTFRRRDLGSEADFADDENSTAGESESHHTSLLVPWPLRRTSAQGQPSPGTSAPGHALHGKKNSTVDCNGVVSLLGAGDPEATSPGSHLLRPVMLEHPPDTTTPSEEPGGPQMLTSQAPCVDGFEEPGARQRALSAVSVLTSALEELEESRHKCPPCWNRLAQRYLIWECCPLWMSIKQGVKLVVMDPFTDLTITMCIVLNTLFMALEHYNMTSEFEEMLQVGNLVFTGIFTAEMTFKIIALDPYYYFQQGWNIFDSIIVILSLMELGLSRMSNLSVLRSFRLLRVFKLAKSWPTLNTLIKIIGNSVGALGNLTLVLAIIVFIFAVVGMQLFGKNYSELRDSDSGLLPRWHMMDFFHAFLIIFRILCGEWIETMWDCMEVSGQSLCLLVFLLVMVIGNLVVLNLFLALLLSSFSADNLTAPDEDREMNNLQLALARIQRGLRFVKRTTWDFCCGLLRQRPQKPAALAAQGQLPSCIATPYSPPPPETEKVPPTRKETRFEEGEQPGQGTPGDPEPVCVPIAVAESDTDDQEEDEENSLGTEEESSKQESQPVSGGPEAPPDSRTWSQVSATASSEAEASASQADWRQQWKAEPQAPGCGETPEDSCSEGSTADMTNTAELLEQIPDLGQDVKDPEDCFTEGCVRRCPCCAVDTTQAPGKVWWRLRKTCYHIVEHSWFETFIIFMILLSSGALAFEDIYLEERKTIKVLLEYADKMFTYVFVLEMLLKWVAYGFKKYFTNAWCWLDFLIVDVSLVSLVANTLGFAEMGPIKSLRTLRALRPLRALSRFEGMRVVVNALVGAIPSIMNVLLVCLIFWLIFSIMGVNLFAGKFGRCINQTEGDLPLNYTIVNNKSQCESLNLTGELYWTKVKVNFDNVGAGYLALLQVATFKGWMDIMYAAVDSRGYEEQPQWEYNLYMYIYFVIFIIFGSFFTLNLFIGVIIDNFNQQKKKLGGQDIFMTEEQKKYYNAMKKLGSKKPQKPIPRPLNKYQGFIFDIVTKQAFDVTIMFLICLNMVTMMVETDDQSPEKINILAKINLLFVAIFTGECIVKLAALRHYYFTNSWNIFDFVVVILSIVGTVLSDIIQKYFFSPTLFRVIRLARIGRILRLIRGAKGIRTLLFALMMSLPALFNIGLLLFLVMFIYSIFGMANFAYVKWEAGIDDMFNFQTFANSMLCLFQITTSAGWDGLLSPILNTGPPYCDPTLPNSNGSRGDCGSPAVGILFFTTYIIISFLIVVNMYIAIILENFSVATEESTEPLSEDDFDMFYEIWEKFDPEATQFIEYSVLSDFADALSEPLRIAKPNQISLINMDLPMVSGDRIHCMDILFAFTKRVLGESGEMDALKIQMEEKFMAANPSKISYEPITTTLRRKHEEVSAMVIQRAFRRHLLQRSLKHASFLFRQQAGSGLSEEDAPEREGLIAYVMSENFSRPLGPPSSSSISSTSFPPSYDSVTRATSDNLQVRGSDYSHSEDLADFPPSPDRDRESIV

Structure (SMILES) | IC50 (NaV1.6) | IC50 (NaV1.1) | IC50 (NaV1.5)
Cc1cc(S(=O)(=O)Nc2cscn2)c(F)cc1O[C@H]1CCN(Cc2ccccc2)C1 [Example 273, (S)-4-((1-benzylpyrrolidin-3-yl)oxy)-2-fluoro-5-methyl-N-(thiazol-4-yl)benzenesulfonamide 2,2,2-trifluoroacetate] | 1.99 µM | 22.5 µM | 7.1 µM
O=S(=O)(Nc1cscn1)c1c(F)cc(O[C@H]2CCN(Cc3ccccc3)C2)c(Br)c1F [Example 274, (S)-4-((1-benzylpyrrolidin-3-yl)oxy)-3-bromo-2,6-difluoro-N-(thiazol-4-yl)benzenesulfonamide formate] | 1.85 µM | > 30 µM | 10 µM
C=Cc1c(O[C@H]2CCN(Cc3ccccc3)C2)cc(F)c(S(=O)(=O)Nc2cscn2)c1F [Example 275, (S)-4-((1-benzylpyrrolidin-3-yl)oxy)-2,6-difluoro-N-(thiazol-4-yl)-3-vinylbenzenesulfonamide 2,2,2-trifluoroacetate] | 0.738 µM | 29.7 µM | 17.6 µM
CCc1c(O[C@H]2CCN(Cc3ccccc3)C2)cc(F)c(S(=O)(=O)Nc2cscn2)c1F [Example 276, (S)-4-((1-benzylpyrrolidin-3-yl)oxy)-3-ethyl-2,6-difluoro-N-(thiazol-4-yl)benzenesulfonamide 2,2,2-trifluoroacetate] | 0.566 µM | 18.7 µM | 17.9 µM
Cc1cc(S(=O)(=O)Nc2cscn2)c(F)cc1N(C)[C@H]1CCN(Cc2ccccn2)C1 [Example 278, (S)-2-fluoro-5-methyl-4-(methyl(1-(pyridin-2-ylmethyl)pyrrolidin-3-yl)amino)-N-(thiazol-4-yl)benzenesulfonamide 2,2,2-trifluoroacetate] | 0.893 µM | > 30 µM | > 30 µM
Cc1cc(S(=O)(=O)Nc2cscn2)ccc1N(C)[C@H]1CCN(Cc2cc(F)ccc2F)C1 [Example 285, (S)-4-((1-(2,5-difluorobenzyl)pyrrolidin-3-yl)(methyl)amino)-3-methyl-N-(thiazol-4-yl)benzenesulfonamide 2,2,2-trifluoroacetate] | 0.389 µM | 4.37 µM | 2.71 µM
CN(c1cc(F)c(S(=O)(=O)Nc2cscn2)c(F)c1)[C@H]1CCN(Cc2ccccc2)C1 [Example 286, (S)-4-((1-benzylpyrrolidin-3-yl)(methyl)amino)-2,6-difluoro-N-(thiazol-4-yl)benzenesulfonamide formate] | 2.22 µM | 2.27 µM | 1.99 µM
CN(c1cc(F)c(S(=O)(=O)Nc2cscn2)c(F)c1)[C@H]1CCN(Cc2cccc(C(F)F)c2)C1 [Example 287, (S)-4-((1-(3-(difluoromethyl)benzyl)pyrrolidin-3-yl)(methyl)amino)-2,6-difluoro-N-(thiazol-4-yl)benzenesulfonamide 2,2,2-trifluoroacetate] | 6.67 µM | 7.81 µM | 8.26 µM
Cc1cc(S(=O)(=O)Nc2cscn2)c(F)cc1N[C@H]1CCN(Cc2ccccc2)C1 [Example 288, (S)-4-((1-benzylpyrrolidin-3-yl)amino)-2-fluoro-5-methyl-N-(thiazol-4-yl)benzenesulfonamide 2,2,2-trifluoroacetate] | 4.32 µM | 15.9 µM | 27.4 µM
CN(c1cc(F)c(S(=O)(=O)Nc2cscn2)cc1C1CC1)[C@H]1CCN(Cc2ccccc2)C1 [Example 289, (S)-4-((1-benzylpyrrolidin-3-yl)(methyl)amino)-5-cyclopropyl-2-fluoro-N-(thiazol-4-yl)benzenesulfonamide 2,2,2-trifluoroacetate] | 1.27 µM | 7.02 µM | 19.4 µM
CCc1cc(S(=O)(=O)Nc2cscn2)c(F)cc1N(C)[C@H]1CCN(Cc2ccccc2)C1 [Example 290, (S)-4-((1-benzylpyrrolidin-3-yl)(methyl)amino)-5-ethyl-2-fluoro-N-(thiazol-4-yl)benzenesulfonamide 2,2,2-trifluoroacetate] | 1.79 µM | 6.24 µM | 5.3 µM
CCN(c1cc(F)c(S(=O)(=O)Nc2cscn2)cc1C)[C@H]1CCN(Cc2ccccc2)C1 [Example 312, (S)-4-((1-benzylpyrrolidin-3-yl)(ethyl)amino)-2-fluoro-5-methyl-N-(thiazol-4-yl)benzenesulfonamide 2,2,2-trifluoroacetate] | 2.77 µM | 10.2 µM | 6.45 µM
Cc1c(N(C)[C@H]2CCN(Cc3cc(F)ccc3F)C2)ccc(S(=O)(=O)Nc2cscn2)c1F [Example 322, (S)-4-((1-(2,5-difluorobenzyl)-pyrrolidin-3-yl)(methyl)amino)-2-fluoro-3-methyl-N-(thiazol-4-yl)benzenesulfonamide 2,2,2-trifluoroacetate] | 0.237 µM | 6.02 µM | 7.35 µM

Continued, in another order:

IC50 (NaV1.6) | IC50 (NaV1.1) | Structure (SMILES) | IC50 (NaV1.5)
2.78 µM | 3.79 µM | C[C@H](c1cc(C(F)F)ccc1F)N1CCC(Oc2ccc(S(=O)(=O)Nc3cscn3)cc2Cl)CC1 [Example 292, (R)-3-chloro-4-((1-(1-(5-(difluoromethyl)-2-fluorophenyl)ethyl)piperidin-4-yl)oxy)-N-(thiazol-4-yl)benzenesulfonamide formate] | 1.88 µM
10.9 µM | > 30 µM | CN(c1cc(F)c(S(=O)(=O)Nc2cscn2)cc1F)[C@H]1CCN(Cc2ccccc2)C1 [Example 293, (S)-4-((1-benzylpyrrolidin-3-yl)(methyl)amino)-2,5-difluoro-N-(thiazol-4-yl)benzenesulfonamide 2,2,2-trifluoroacetate] | > 30 µM
2.35 µM | 15.7 µM | CN(c1ccc(S(=O)(=O)Nc2cscn2)cc1C(F)(F)F)[C@H]1CCN(Cc2ccccc2)C1 [Example 294, (S)-4-((1-benzylpyrrolidin-3-yl)(methyl)amino)-N-(thiazol-4-yl)-3-(trifluoromethyl)benzenesulfonamide formate] | 16.4 µM
0.324 µM | > 30 µM | Cc1c(OC2CCN(Cc3ccccc3)CC2)ccc(S(=O)(=O)Nc2cscn2)c1F [Example 299, 4-((1-benzylpiperidin-4-yl)oxy)-2-fluoro-3-methyl-N-(thiazol-4-yl)benzenesulfonamide hydrochloride] | 26.6 µM
2.14 µM | > 30 µM | C[C@@H](c1ccccc1)N1CCC(Oc2ccc(S(=O)(=O)Nc3ccncn3)cc2Cl)CC1 [Example 301, (S)-3-chloro-4-((1-(1-phenylethyl)piperidin-4-yl)oxy)-N-(pyrimidin-4-yl)benzenesulfonamide] | > 30 µM
1.16 µM | 9.55 µM | Cc1c(N(C)[C@H]2CCN(Cc3ccccc3)C2)cc(F)c(S(=O)(=O)Nc2ccc(F)cn2)c1F [Example 302, (S)-4-((1-benzylpyrrolidin-3-yl)(methyl)amino)-2,6-difluoro-N-(5-fluoropyridin-2-yl)-3-methylbenzenesulfonamide formate] | 28.9 µM
2.44 µM | 7.06 µM | O=S(=O)(Nc1cscn1)c1ccc(OC2CCN(C3(c4ccccc4)CC3)CC2)c(Cl)c1 [Example 303, 3-chloro-4-((1-(1-phenylcyclopropyl)piperidin-4-yl)oxy)-N-(thiazol-4-yl)benzenesulfonamide] | 4.62 µM
2.48 µM | > 30 µM | C[C@H](c1ccccc1)N1CCC(Oc2ccc(S(=O)(=O)Nc3ncc(F)cn3)cc2Cl)CC1 [Example 304, (R)-3-chloro-N-(5-fluoropyrimidin-2-yl)-4-((1-(1-phenylethyl)piperidin-4-yl)oxy)benzenesulfonamide] | > 30 µM
4.56 µM | 6.73 µM | Cc1cc(S(=O)(=O)Nc2ccc(F)cn2)c(F)cc1N(C)[C@H]1CCN(Cc2ccccc2)C1 [Example 306, (S)-4-((1-benzylpyrrolidin-3-yl)(methyl)amino)-2-fluoro-N-(5-fluoropyridin-2-yl)-5-methylbenzenesulfonamide] | 11.9 µM
5.31 µM | 4.11 µM | Cc1cc(S(=O)(=O)Nc2cnsc2)c(F)cc1N(C)[C@H]1CCN(Cc2ccccc2)C1 [Example 307, (S)-4-((1-benzylpyrrolidin-3-yl)(methyl)amino)-2-fluoro-N-(isothiazol-4-yl)-5-methyl benzenesulfonamide formate] | 9.79 µM
1.47 µM | 24.7 µM | Cc1cc(S(=O)(=O)Nc2cccc(F)n2)c(F)cc1N(C)[C@H]1CCN(Cc2ccccc2)C1 [Example 308, (S)-4-((1-benzylpyrrolidin-3-yl)(methyl)amino)-2-fluoro-N-(6-fluoropyridin-2-yl)-5-methylbenzenesulfonamide] | > 30 µM
0.936 µM | 29.6 µM | C[C@H](c1ccccc1)N1CCC(Oc2ccc(S(=O)(=O)Nc3cscn3)c(F)c2F)CC1 [Example 313, (R)-2,3-difluoro-4-((1-(1-phenylethyl)piperidin-4-yl)oxy)-N-(thiazol-4-yl)benzenesulfonamide formate] | > 30 µM
0.73 µM | > 30 µM | Cc1ccc(F)c(CN2CC[C@H](N(C)c3cc(F)c(S(=O)(=O)Nc4cscn4)cc3Cl)C2)n1 [Example 314, (S)-5-chloro-2-fluoro-4-((1-((3-fluoro-6-methylpyridin-2-yl)methyl)pyrrolidin-3-yl)(methyl)amino)-N-(thiazol-4-yl)benzenesulfonamide] | > 30 µM
1.03 µM | 9.89 µM | CN(c1cc(F)c(S(=O)(=O)Nc2cscn2)cc1Cl)[C@H]1CCN(Cc2cccc(N3CCC3)n2)C1 [Example 317, (S)-4-((1-((6-(azetidin-1-yl)pyridin-2-yl)methyl)pyrrolidin-3-yl)(methyl)amino)-5-chloro-2-fluoro-N-(thiazol-4-yl)benzenesulfonamide 2,2,2-trifluoroacetate] | 8.12 µM
